From US11666661B2, “Methods and compounds for targeted autophagy” (THE REGENTS OF THE UNIVERSITY OF CALIFORNIA, priority 2018, dated 2023)

Experiments:
Assay type in all cases: binding
LC3A (C17) = LC3A (C17) (Homo sapiens, UniProt Q9H492); assay: gel-based ABPP screen of cysteine-reactive covalent ligands against IA-alkyne labeling of LC3A; conditions: for hit that displaced IA-alkyne probe labeling of C17 on LC3A (loss of in-gel fluorescence): pure LC3A protein
From the text: The critical part of this platform was to first develop a small-molecule recruiter for an autophagy adapter. We performed chemoproteomics-enabled covalent ligand discovery against the autophagy adapter LC3A, an important autophagy protein involved in substrate recognition, to discover an LC3A-recruiter, which can be combined with a protein targeting ligand via a linker to enable targeted protein autophagy of undruggable targets. […] While the NETS-ester probe appeared to label multiple sites on LC3A, the IA-alkyne probe apparently labeled one site, consistent with only one cysteine within LC3A-C17. Across the LC3 proteins, LC3A is the only protein that bears one cysteine. We next screened our cysteine-reactive covalent ligand library against iodoacetamide-alkyne (IA-alkyne) labeling of C17 on LC3A, and looked for hits that displaced probe-labeling resulting in loss of fluorescence by gel. Through this effort, we identified several cysteine-reactive acrylamide hits, including TRH 1-65, TRH 1-68, TRH 1-170, TRH 1-171, YP 1-44, CC 1-42, CC 1-48, EN2, EN7, EN35, and EN40 (FIGS. 5A-5D). These small-molecule recruiters or analogs of these chemical scaffolds that also bind to LC3A C17 can now be appended to linkers and protein targeting ligands to send specific protein cargo, and associated cellular contents, compartments, cells, or organelles off for targeted protein autophagy and lysososomal degradation. […] Examples of compounds that can be appended onto an autophagy adapter recruiter is JQ1, an inhibitor of bromodomain-containing BRD4 protein (an epigenetic regulator implicated in numerous human cancers). JQ1 can be appended to a linker, and an LC3A recruiter EN7 to degrade BRD4 in cells (FIGS. 7A-7C). Protein autophagy degrader can also be used to broadly recognize misfolded proteins and protein aggregates by conjugating thioflavin T, a general aggregate-protein recognizing compound, to a linker and EN7 to send these toxic protein aggregates and misfolded proteins to the autophagosome for lysosomal degradation (FIG. 8).

p62/SQSTM1 protein = p62/SQSTM1 protein (Homo sapiens, UniProt Q13501); assay: MS/MS of direct adduct on a peptide derived from p62/SQSTM1
From the text: FIG. 14. MS/MS data corresponding to the direct adduct of EN96 on a peptide derived from p62/SQSTM1.

SQSTM1 (p62) = SQSTM1 (p62) (Homo sapiens, UniProt Q13501); assay: gel-based ABPP cysteine-reactive covalent ligand screen against SQSTM1 (p62); conditions: FIGS. 10A-10B
From the text: We have performed a cysteine-reactive covalent ligand screen against the autophagy adapter protein SQSTM1 (p62) using gel-based activity-based protein profiling (ABPP) approaches. We have identified several hit compounds that targeted a cysteine on SQSTM1 (FIGS. 10A-10B). […] To test whether we can use this potential SQSTM1 recruiter EN96 in a TADT platform, we synthesized BMF-1-64, which links EN96 to a BRD4 inhibitor JQ1, to determine whether we could degrade BRD4 in a proteasome-independent manner (FIG. 11).

LC3A = LC3A (Homo sapiens, UniProt Q9H492); assay: Gel-based ABPP analysis against LC3A; conditions: IA-alkyne probe
Protocol: FIGS. 5A-5D. Covalent ligand screen against LC3A. Gel-based ABPP screen of cysteine-reactive ligand library against IA-alkyne labeling of LC3A. Cysteine-reactive covalent ligands were pre-incubated with LC3A pure protein (50 microM) for 30 min at room temperature prior to IA-alkyne labeling of the protein (10 microM) for 30 min at room temperature. Proteins were run on SDS/PAGE and in-gel fluorescence was analyzed.

Sequence of p62/SQSTM1 protein (Q13501 whole entry): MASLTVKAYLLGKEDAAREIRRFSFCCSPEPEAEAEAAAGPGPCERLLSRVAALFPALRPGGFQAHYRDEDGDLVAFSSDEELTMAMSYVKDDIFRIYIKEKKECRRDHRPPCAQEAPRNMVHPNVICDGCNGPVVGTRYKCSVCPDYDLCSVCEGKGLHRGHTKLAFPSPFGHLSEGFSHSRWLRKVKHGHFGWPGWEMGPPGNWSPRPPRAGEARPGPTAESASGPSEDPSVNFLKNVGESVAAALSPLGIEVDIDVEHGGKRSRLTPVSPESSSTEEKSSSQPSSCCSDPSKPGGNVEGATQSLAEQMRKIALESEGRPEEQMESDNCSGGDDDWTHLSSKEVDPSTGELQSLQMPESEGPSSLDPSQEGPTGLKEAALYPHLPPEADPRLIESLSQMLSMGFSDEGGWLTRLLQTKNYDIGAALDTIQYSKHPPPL
Sequence of SQSTM1 (p62) (Q13501 whole entry): as above

| Compound | hit that displaced IA-alkyne probe labeling of C17 on LC3A (loss of in-gel fluorescence) (LC3A (C17)) | other results |
| --- | --- | --- |
| C=CC(=O)N1CCC(C)C(c2ccco2)C1 (centres unmarked) [EN40] | hits |  |
| C=CC(=O)NCc1ccc(C(=O)N2CCC(c3nc4ccccc4s3)CC2)cc1 [EN2] | hits |  |
| C=CCOc1ccccc1CN(C(=O)CCl)c1ccc2c(c1)OCO2 [EN96] |  | cysteine of p62/SQSTM1 modified (p62/SQSTM1 protein): reacts with C113; potency ranking among covalent ligand hits against SQSTM1 (SQSTM1 (p62)): most potent covalent ligand against SQSTM1 |
| C=CC(=O)N=C1N=C2C=CC(I)=CN2Cc2ccccc21 [EN7] | hits | targeting of C17 of LC3A, lowest concentration (LC3A): ≥ 1 µM; concentration down to which the compound binds LC3A (LC3A (C17); FIG. 6): ≥ 1 µM |
| C=CC(=O)NC(c1ccco1)c1ccccc1OC (centres unmarked) [EN35] | hits |  |
